Where “and” joins values, the source holds several entries; their conditions need not be identical. Equal entries are not always repeated. Where two headings read alike, the source gives them in different places. Values belong to the compound of their own block, whether it stands above or below them.
Assays:
[1] = Pharmacokinetics in CD-1 mouse, plasma concentration by LC-MS; type: in vivo
[2] = cynomolgus monkey, in vivo
[3] = dog, in vivo
[4] = Plasma stability, 24 h, LC-MS, mouse plasma; type: in vitro ADME
Experimental: (§1) To investigate the stability of the conjugates in mouse, cyno monkey, dog, and human plasma, conjugate mCMD307 was incubated in plasma for 24 h (Table 13). At certain time intervals a sample of plasma was taken and plasma proteins precipitated. Samples were analyzed using LC-MS.

in vitro = in vitro ADME; settings: dog, human, plasma
Experimental: as §1

[5] = type: in vitro ADME, cynomolgus monkey
Experimental: as §1

normal mice = assay: Oral glucose tolerance test 12 h after single SC dose in mice; type: in vivo, mouse; settings: 10 nmol/kg S.C., 12 h before glucose
Experimental: Mice were fasted overnight prior to the oral glucose tolerance test (OGTT), and then dosed with peptide. After 12 h, 1 g of glucose solution per kg body weight was administered orally, and mouse tail blood glucose levels were measured before (0 min) and after glucose challenge for 90 minutes (with measurements at 15, 30, 60 and 90 minutes) (FIG. 16). The data were compared using the unpaired Student's t test. Where appropriate, data were compared using repeated measures or one-way analysis of variance, followed by the Student-Newman-Keuls post hoc test. Calculations for […] (mg/dL*min) were also analyzed and graphed in FIG. 16. […]. […].

wild-type mice = assay: Oral glucose tolerance test 2 h and 96 h post injection in wild-type mice; type: in vivo, mouse; settings: 10 nmol/kg s.c., vs vehicle
[6] = 1 mg/kg I.V., individual animals, 1 mg/kg
[7] = 1 mg/kg S.C., individual animals, 1 mg/kg

Compound: CC[C@H](C)[C@H](NC(=O)[C@H](CC(C)C)NC(=O)[C@H](Cc1c[nH]c2ccccc12)NC(=O)[C@@H]1CSCC(=O)NCCN(C(=O)CCC(=O)NCCOCCOCCC(=O)NCCOCCOCCC(=O)NCCCC[C@H](NC(=O)CCCCCCCCCCCCCCCCC(=O)O)C(=O)O)CCNC(=O)CSC[C@H](NC(=O)[C@H](CCCCN)NC(=O)[C@H](CC(=O)O)NC(=O)[C@H](CC(C)C)NC(=O)[C@H](Cc2ccc(O)cc2)NC(=O)[C@@H](NC(=O)[C@H](CO)NC(=O)[C@H](Cc2ccc(O)cc2)NC(=O)[C@H](CC(=O)O)NC(=O)[C@H](CO)NC(=O)[C@@H](NC(=O)[C@H](Cc2ccccc2)NC(=O)[C@@H](NC(=O)CNC(=O)[C@H](CCC(=O)O)NC(=O)C(C)(C)NC(=O)[C@@H](N)Cc2ccc(O)cc2)[C@@H](C)O)[C@@H](C)O)[C@@H](C)CC)C(=O)N[C@@H](C)C(=O)N[C@@H](C)C(=O)NC(C)(C)C(=O)N[C@@H](CCC(=O)O)C(=O)N[C@@H](Cc2ccccc2)C(=O)N[C@@H](C(C)C)C(=O)N1)C(=O)N[C@@H](C)C(=O)NCC(=O)NCC(=O)N1CCC[C@H]1C(=O)N[C@@H](CO)C(=O)N[C@@H](CO)C(=O)NCC(=O)N[C@@H](C)C(=O)N1CCC[C@H]1C(=O)N1CCC[C@H]1C(=O)N1CCC[C@H]1C(=O)N[C@@H](CO)C(N)=O [mCMZ371, YAibEGT-FTSDY-SIYLD-KXAAAib-EFVXW-LIAGG-PSSGA-PPPS-NH2 (where each X is C)]
AUC compared with mCMZ370 ([1]; 1 mg/kg I.V. or S.C.): significantly larger area under the curve
half-life compared with mCMZ370 ([1]; 1 mg/kg I.V. or S.C.): longer half-life
Tlast ([1]; 1 mg/kg I.V., individual animals): 72 h
AUC—%Extrap—pred [1, 6]: 0.75%
Cl—pred [1, 6]: 2.76 mL/h/kg and 2.46 mL/h/kg
Tlast ([1]; 1 mg/kg S.C., individual animals): 72 h
Cl—Fpred [1, 7]: 7.2 mL/h/kg and 4.8 mL/h/kg and 14.4 mL/h/kg
V—F—pred [1, 7]: 0.06 L/kg and 0.12 L/kg and 0.08 L/kg
Vd ([1]; in vivo, iv, 1 mg/kg I.V., individual animals, read-out: Vss—pred): 0.054 L/kg
clearance ([1]; mouse, in vivo, iv, 1 mg/kg, 1 mg/kg I.V., individual animals, read-out: Cl—pred): 2.88 mL/h/kg
t1/2 in cynomolgus monkeys [2]: long t1/2
Tlast ([2]; iv): 240 h
Tlast ([2]; sc): 240 h
t1/2 in dogs [3]: long t1/2
Tlast ([3]; iv): 240 h
Tlast ([3]; sc): 240 h

Area under the peak (%) [4]: 53%
remaining at 24 h (in vitro): 92%
Area under the peak (%) [5]: 87%
Compound: CC[C@H](C)[C@H](NC(=O)[C@H](CO)NC(=O)[C@H](Cc1ccc(O)cc1)NC(=O)[C@H](CC(=O)O)NC(=O)[C@H](CO)NC(=O)[C@@H](NC(=O)[C@H](Cc1ccccc1)NC(=O)[C@@H](NC(=O)CNC(=O)[C@H](CCC(=O)O)NC(=O)C(C)(C)NC(=O)[C@@H](N)Cc1ccc(O)cc1)[C@@H](C)O)[C@@H](C)O)C(=O)N[C@@H](Cc1ccc(O)cc1)C(=O)N[C@H]1CCCCNC(=O)CN(C(=O)CCNC(=O)CCOCCOCCOCCNC(=O)CCCCCCCCCCCCCCCCC(=O)O)CC(=O)NCCCC[C@@H](C(=O)N[C@@H](Cc2ccccc2)C(=O)N[C@H](C(=O)N[C@@H](CC(N)=O)C(=O)N[C@@H](Cc2c[nH]c3ccccc23)C(=O)N[C@@H](CC(C)C)C(=O)N[C@@H](CC(C)C)C(=O)N[C@@H](C)C(=O)NCC(=O)NCC(=O)N2CCC[C@H]2C(=O)N[C@@H](CO)C(=O)N[C@@H](CO)C(=O)NCC(=O)N[C@@H](C)C(=O)N2CCC[C@H]2C(=O)N2CCC[C@H]2C(=O)N2CCC[C@H]2C(=O)N[C@@H](CO)C(N)=O)C(C)C)NC(=O)C(C)(C)NC(=O)[C@H](C)NC(=O)[C@H](C)NC(=O)[C@H](CCC(N)=O)NC(=O)[C@H](CCCCN)NC(=O)[C@H](CC(=O)O)NC1=O [mCMD307, YAibEGT-FTSDY-SIYXD-KQAAAib-XFVNW-LLAGG-PSSGA-PPPS-NH2 (where each X is K)]

Compound: Semaglutide
effects on glucose tolerance at 10 nmol/kg (normal mice): indistinguishable effects on glucose tolerance
glucose tolerance (OGTT) 96 h after administration (wild-type mice): did not exhibit any improvement over the vehicle
